# From US10675267B2, “Methods for detection and eradication of myeloid leukemia stem cells” (priority 2015, dated 2020)
# Entries after “also recorded” stand apart in the source; their conditions may differ.
# Assays:
# [1] = tested on: CD34+ cells from normal aged bone marrow; assay: SL/M2 stromal co-culture with colony and replating assays, normal bone marrow; assay type: cell-based, human; settings: normal aged bone marrow samples
# Procedure: (§1) In hypothesis-driven experiments, the splicing modulatory compound 17S-FD-895 was tested to determine efficacy in altering splicing activity in cell lines, and to evaluate effects on AML LSC survival and self-renewal capacity in humanized bone marrow stromal co-cultures and in PRIMAGRAFT™ AML LSC models. Cell culture experiments were performed using 293T and sAML (MOLM-13) cell lines, and SL and M2 bone marrow stromal cell lines. Animal studies were performed using immunocompromised Rag2−/−γc−/−[20] or NOD/SCID-IL2RG mice (Jackson Laboratory, Bar Harbor, Me.). Primary AML and normal control samples were used in in vitro hematopoietic stem and progenitor assays after bone marrow stromal co-culture and treatment with splicing modulatory compounds (FD-895 or 17S-FD-895) or vehicle control (DMSO). Colony formation potential and self-renewal capacity were assessed by counting colony numbers (survival) after two weeks of growth in semi-solid (methylcellulose) media, and subsequent replating capacity (self-renewal) was assessed after transfer to fresh methylcellulose for an additional two weeks of culture. Three primary AML samples were utilized to establish PRIMAGRAFT™ models in immunocompromised mice, and mice engrafted with cells from two of these models (AML-37 and AML-08) were treated with 17S-FD-895 or vehicle (DMSO) to evaluate changes in AML LSC survival and self-renewal capacity in vivo. Data were collected by flow cytometry and qRT-PCR analysis of CD34-selected human LSC-enriched cells from engrafted mice.
# (§2) Bone marrow SL/M2 monolayers were established from freshly inactivated (irradiated) cells and then human CD34^+ cells selected from AML primary samples (n=8) and normal controls (CD34^+ cells from cord blood, CB, n=6; or aged bone marrow, n=6) were added. Survival and self-renewal of the CD34+ cells were investigated by methylcellulose-based colony and replating assays. Two SF3B1-targeted splicing modulators, FD-895 or 17S-FD-895, were added at the initiation of co-culture at concentrations ranging from 0.1 to 10 μM.
# (§3) As previously described (Goff et al., 2013), humanized bone marrow SL/M2 monolayers were inactivated (irradiated) and then human CD34^+ cells selected from AML primary samples and normal controls were added for two weeks of co-culture, followed by methylcellulose-based colony and replating assays. FD-895 or 17S-FD-895 were added at the initiation of co-culture, with DMSO as a vehicle control.
# [2] = tested on: AML LSC (CD34+ cells from AML primary samples); assay: SL/M2 stromal co-culture with colony formation (survival) and replating (self-renewal) assays, AML; assay type: cell-based, human; settings: two weeks SL/M2 co-culture, 0.1-10 μM, versus DMSO
# Procedure: as §1, §2
# Mouse bone marrow stromal cell lines (SL and M2 mycoplasma-free authenticated cells obtained from ATCC) expressing human interleukin-3 (IL-3), stem cell factor (SCF) and granulocyte-colony stimulating factor (G-CSF), which support erythroid and myeloid cell expansion and differentiation, were maintained under standard culture conditions, as previously described. Briefly, SL cells were grown in complete medium containing DMEM (Corning), 10% FBS, 1% Glutamax, and 1% penicillin-streptomycin (Life Technologies), while M2 cells were grown in complete medium containing RPMI, 10% FBS, 1% Glutamax, and 1% penicillin-streptomycin (all from Life Technologies). Every four passages, cells were selected by addition of G418 and hygromycin to the culture media for one passage (3-4 days), to maintain human cytokine expression. All cell lines were maintained in T-25 or T-75 culture flasks and were passaged at dilutions of 1:5-1:10 every 2-4 days. Low passage aliquots of cells were thawed every two months to ensure consistency of experiments.
# as §3
# Mouse bone marrow stromal cell lines (SL and M2 mycoplasma-free authenticated cells obtained from ATCC) expressing human interleukin-3 (IL-3), stem cell factor (SCF) and granulocyte-colony stimulating factor (G-CSF), which support erythroid and myeloid cell expansion and differentiation (Hogge et al., 1996), were maintained under standard culture conditions, as previously described (Goff et al., 2013). […]
structure (smiles),measurement,setting,value
"CCC(OC)C(C)C1OC1C(O)C(C)/C=C/C=C(\C)C1OC(=O)CC(O)CCC(C)(O)C(OC(C)=O)/C=C/C1C (stereo not shown) [FD-895, reference compound]",erythroid colony formation and self-renewal,[1],not significantly changed; also recorded: no effect on erythroid colonies
same,granulocyte-macrophage (myeloid) colony survival,[1],slight decrease; also recorded: reduces myeloid colony formation
same,AML LSC self-renewal (colony replating),[2],dose-dependent reduction; also recorded: reduced AML LSC self-renewal
same,AML LSC survival (colony formation),[2],dose-dependent reduction; also recorded: reduced AML LSC survival
